Reference: patent EP2511272B1, “Synthetic analogues of abscisic acid with anti-inflammatory and insulin release stimulation effects on human cells” (Universita' degli Studi di Genova, priority 2011, dated 2012)
Like-named read-outs stand apart in the source and are kept apart here.

How the values were obtained:
[1] = test system: human monocytes; assay: Inhibition of ABA-induced MCP-1 production in monocytes (ELISA); type: cell-based; settings: 6 h
Procedure: Monocytes, 25 x 10^6/Petri in complete RPMI, were incubated for 6 h with 100 nM ABA either alone, or in the presence of compound prepared according to example 1, at a concentration of 1 µM. At the end of the incubation, the substrate was centrifuged at 17,000xg for 5 minutes and the release of MCP-1 (monocyte chemotactic protein-1) was quantitated by means of kit MC=-1 Elisa kit (GE Healthcare), in accordance with the instructions supplied by the manufacturer.
(§1) The cells were lysed in 200 µl of deionized water in order to quantitate total proteins by the Bradford method, after thre preliminary generation of a reference standard curve, obtained with different concentrations of bovine serum albumin. The spectrophotometric measurements were carried out at wavelength of 595 nm.
The experiment was carried out three times in sextuplicate.
The results were expressed as the average of the results from three independent experiments, as referred to control value. […] TABLE 8. Inhibition of MCP-1 production in human monocytes by compound prepared according to example 1

[2] = test system: human granulocytes; assay: Inhibition of ABA-induced phagocytosis of fluorescent beads; type: cell-based
Procedure: Human granulocytes, after ON incubation in complete DMEM/F12, were resuspended at 1x10^6 cells/100 µl in HBSS.
For the experiment, fluorescent polystyrene (carboxylate-modified polystyrene) beads were used, of 1 µm of diameter (Sigma-Aldrich) A volume of 100 µl of cellular suspension was subdivided into eppendorf, in which a 10 minutes long preincubation was carried out with 20 µM ABA, either alone, or together with increasing concentrations of compound prepared according to example 1.
After the end of the preincubation, the beads were added for 5, 10 and 30 minutes. For each experimental point, 2.5 x 10^5 beads were used.
At the end of the incubations, the cells were collected by centrifugation (200xg for 10 seconds), were washed with 1 ml of HBSS at 0 °C and were centrifuged once again at 200xg for 10 seconds. The supernatant was discarded and the cells were resuspended in 350 µl of HBSS and added to 96-well plates of white colour (100 µl per well).
The increase in fluorescence was measured with Fluostar OPTIMA fluorometer (λexc: 485; λemis: 520).
The experiment was carried out three times in triplicate.
Human grnulocytes were preincubated for 10 minutes at 20 °C with 20 µM ABA, either alone or in the presence of compound prepared according to example 1, at various concentrations. In order to evaluate the phagocytic capability of granulocytes, fluorescent beads were added and, after 15 and 30 minutes, the fluorescence absorbed by the cells was determined as described in Materials and Methods The results were expressed as the average of the results obtained from three independent experiments, from which the background value, obtained from the control, had been subtracted (TABLE 5). TABLE 5. Inhibition of phagocitosis, in human granulocytes stimulated with ABA, by compound prepared according to example 1.

[3] = test system: 1321 N1 (human astrocytoma); assay: Cytotoxicity, CellTiter 96 AQueous One Solution assay; type: cell-based; settings: 24 hrs
[4] = Stability after extraction from H2O and HBSS (HPLC-MS); type: physicochemical; settings: for Stability after extraction (amount found): 10 µM; for degradation: 0 vs 24 hrs
Procedure: Compound prepared according to example 1 was tested for stability at 10 µM concentration in deionized water, phosphate buffer (HBSS with calcium and magnesium) and human plasma for 0 and after 24 hrs at 37 °C, by carrying out the extraction as described in Materials and Methods, and subsequent HPLC-MS analysis for the analyte of interest.
For stability tests, to 2 ml of deionized water, HBSS or human plasma, the compound of example 1 (10 µM) and 5,000 cpm of [^3H]ABA were added, for the purpose of evaluating the recovery after the extraction procedure. The so prepared samples were exctracted at time 0 and after 24 hrs.
For the extraction, 8 ml was added of distilled methanol (methanol/water : 80/20 vol/vol) and the mixture was kept at -20 °C overnight.
The following day the samples were centrifuged at 800xg for 10 minutes and the supernatant was concentrated to dryness by Rotavapor. The reconstituted aqueous solution was acidified at pH 2.6 with 10 % trifluoroacetric acid (TFA) and was extracted three times with diethyl ether (diethyl ether/water: 1:1 vol/vol).
The ethereal phase was finally removed by Rotavapor and the extraxt was resuspended in 1 ml of HBSS; 8 µl of such solution was analysed by HPLC-MS, and 100 µl was used for radioactivity counting by a Packard β-counter in order to compute extraction recovery.
The HPLC-MS system used consists of an Agilent 1100 capillary chromatograph equipped with a diode array detector (DAD) and coupled with an Agilent 1100 series LC/MSD Trap mass spectometer with orthogonal electrospray source and a ionic-trap analyser.
The detection wavelength was 254 nm and the MS spectrum was recorded in negative ions mode in an m/z range of 50-300.
The amount of compound of example 1 in the extracts and supernatants was computed as the area of the peak under the extracted ion current m/z 279.3, normalized for the ionization efficiency of internal standard (hexadeuterated ABA) used for HPLC-MS analysis. Furthermore, the concentration was computed using the recovery rates obtained from the evaluation of counts per minute (cpm) of extracted [^3H]ABA.

[5] = test system: human granulocytes; assay: Inhibition of ABA-induced PGE2 production in granulocytes (EIA); type: cell-based; settings: 6 h
Procedure: Granulocytes, in a number of 1x10^7 per point in RPMI supplemented with 10 % of foetal calf serum (FCS), penicillin (50 units/ml) and streptomycin (50 µg/ml) (complete RPMI), were incubated for 6 h with […] either alone or in the presence compound prepared according to example 1 at a concentration of 100 nM or of 1 µM. At the end of the incubation, the substrate was centrifuged at 17,000xg for 5 minutes and the concentration of PGE2 was quantitated by using the kit: PGE2 monoclonal EIA kit (Cayman Chemical Co.), following the instructions suppled by the manufacturer.
as §1, with “method (Bradford, M. M., 1976),” for “method,”
The experiment was carried out three times in triplicate TABLE 6). TABLE 6. Inhibition of PGE2 production, in human granulocytes stimulated with ABA, by compound prepared according to example 1

CC1=CC(=O)CC(C)(C)C1(O)/C=C/C(C)=C\C(=O)O (racemic) [ABA, (2Z,4E)-5-(1-hydroxy-2,6,6-trimethyl-4-oxo-2-cyclohexen-1-yl)-3-methyl-2,4-pentadienoic acid, reference compound]
MCP-1 relatively to control ± SD ([1]; ABA 100 nM alone): 2±0.2
Increase in fluorescence ±SD (@ 15 min) ([2]; ABA 20 µM alone, 15 min): 909±47
Increase in fluorescence ±SD (@ 30 min) ([2]; ABA 20 µM alone, 30 min): 2476±50

CC(=C/C(=O)O)/C=C/C1(O)C(C)(C)CC(=O)C2OC21C (stereo not drawn) [Example 1, 2'α,3'α-dihydro-2'α,3'α-epoxyabscisic acid]
number of cells ([3]; 1 nM): 16199
vitality % ([3]; 1 nM): 89%
number of cells ([3]; 10 nM): 18785
vitality % ([3]; 10 nM): 102%
number of cells ([3]; 1 µM): 19446
vitality % ([3]; 1 µM): 106%
number of cells ([3]; 100 µM): 22252
vitality % ([3]; 100 µM): 120%
Stability after extraction (amount found) ([4]; H2O, 0 hr, equals extraction yield, listed as compound of example 1): 100%
Stability after extraction (amount found) ([4]; H2O, 0 hr, equals extraction yield, listed as compound prepared according to example 1): 100%
Stability after extraction (amount found) ([4]; H2O, 24 hrs at 37 °C): 86%
Stability after extraction (amount found) ([4]; HBSS, 0 hr, equals extraction yield, listed as compound of example 1): 76%
Stability after extraction (amount found) ([4]; HBSS, 0 hr, equals extraction yield, listed as compound prepared according to example 1): 76%
Stability after extraction (amount found) ([4]; HBSS, 24 hrs at 37 °C): 73%
degradation ([4]; in phosphate buffer): 3%
degradation ([4]; in water): 14%
inhibition at 0.1 µM ([5]; ABA 100 nM + compound 100 nM): 85%
inhibition at 1 µM ([5]; ABA 100 nM + compound 1 µM): 100%
MCP-1 relatively to control ± SD ([1]; ABA 100 nM + compound 1 µM): 0.8±0.2
inhibition at 1 µM ([1]; Homo sapiens, Monocyte, ABA 100 nM + compound 1 µM): 100%
Increase in fluorescence ±SD (@ 15 min) ([2]; ABA 20 µM + compound 0.5 nM, 15 min): 210±2
Increase in fluorescence ±SD (@ 30 min) ([2]; ABA 20 µM + compound 0.5 nM, 30 min): 1423±3
Increase in fluorescence ±SD (@ 15 min) ([2]; ABA 20 µM + compound 10 nM, 15 min): 148±2
Increase in fluorescence ±SD (@ 30 min) ([2]; ABA 20 µM + compound 10 nM, 30 min): 515±10
Increase in fluorescence ±SD (@ 15 min) ([2]; ABA 20 µM + compound 1 µM, 15 min): 17
Increase in fluorescence ±SD (@ 30 min) ([2]; ABA 20 µM + compound 1 µM, 30 min): 0
inhibition at 0.0005 µM ([2]; Homo sapiens, 0.25 h, ABA 20 µM + compound 0.5 nM, 15 min, read-out: Inhibition % (@ 15 min)): 77%
inhibition at 0.01 µM ([2]; Homo sapiens, 0.25 h, ABA 20 µM + compound 10 nM, 15 min, read-out: Inhibition % (@ 15 min)): 84%
inhibition at 1 µM ([2]; Homo sapiens, 0.25 h, ABA 20 µM + compound 1 µM, 15 min, read-out: Inhibition % (@ 15 min)): 98%
inhibition at 0.0005 µM ([2]; Homo sapiens, 0.5 h, ABA 20 µM + compound 0.5 nM, 30 min, read-out: Inhibition % (@ 30 min)): 43%
inhibition at 0.01 µM ([2]; Homo sapiens, 0.5 h, ABA 20 µM + compound 10 nM, 30 min, read-out: Inhibition % (@ 30 min)): 80%
inhibition at 1 µM ([2]; Homo sapiens, 0.5 h, ABA 20 µM + compound 1 µM, 30 min, read-out: Inhibition % (@ 30 min)): 100%
IC50 ([2]; Homo sapiens, phagocytosis induced by 20 µM ABA): ~0.5 nM
